PMC12266748, “A Xanthine Derivative With Novel Heat Shock Protein 90‐Alpha Inhibitory and Senolytic Properties” (Aging Cell, 2025)
Where two headings read alike, the source gives them in different places.

Assays:
HSP90α [1] = target: T1, HSP90α (Homo sapiens, UniProt P07900); assay: Cellular thermal shift assay (CETSA) on cellular lysates, HSP90α; conditions: 46°C, compound 0.5 mM
Method: Cellular Thermal Shift Assay (CETSA). […] Briefly, the cellular extract was lysed in RIPA buffer (10 mM Tris-HCl pH 7.4, 250 mM NaCl, 1% NP40/IGEPAL, 1% DOC, 0.01% SDS, 0.01% Glycerol, supplemented with protease/phosphatase inhibitor, PI/PhI mix and 2 mM DTT) and protein concentration was determined by a BCA kit (Pierce, Life Technologies, TFS, Waltham, MA, USA). Samples were homogenized by 3 cycles of freeze-thawing using liquid nitrogen and centrifuged at 13000 rpm at 4 °C for 30 min to separate the soluble fraction from the debris.
Following the supplier's recommendations, samples were loaded into the proper cartridge (12- 230 kDa Wes/Jess Separation Modules, ProteinSimple, Biotechne, Minneapolis, MN, USA). HSP90α (1:50, MsMAb, Abcam), HSP90β (1:50, RbMAb, Abcam), GRP94 (1:50, RbMAb, Abcam), TRAP1 (1:50, MsMAb, Abcam), α-Tubulin (1:500, MsMAb, Abcam), and β-Actin (1:500, RbMAb, Abcam) were used as primary antibodies. Secondary antibodies were Anti-Mouse Secondary HRP and Anti-Rabbit Secondary HRP (ProteinSimple, Biotechne, Minneapolis, MN, USA).

HSP90α [2] = target: T1, HSP90α; assay: HSP90 N-Terminal Domain Assay Kit, fluorescence polarization competition with FITC-Geldanamycin; type: binding; parameters: purchased BPS Bioscience 50293; conditions: dose-response 1 pM to 10 μM, n = 3, extrapolated with GraphPad Prism; read-out: HSP90α inhibition IC50
Method: HSP90‐directed inhibitory activity was assessed employing the HSP90 N‐Terminal Domain Assay Kit (BPS Bioscience) according to the manufacturer's instructions. The fluorescence intensity was measured with a multiplate reader (Victor Nivo‐Perkin Elmer). The IC50 was calculated by analyzing the data using GraphPad Prism 10 software.
HSP90 inhibition activity assay. […] […] […] Data are the percentage of residual enzyme activity relative to the solvent (DMSO). The IC50s were calculated by analyzing the data using GraphPad Prism 10 software.

IMR90 cells [3] = assay: Dose-response curves on proliferating and replicative senescent IMR90 (Trypan blue cell count); type: cell-based
Description: (§1) IMR90 and WI38 lung fibroblasts were purchased from ECACC‐Merck. Human bone marrow (BM)‐derived mesenchymal stromal cells (MSCs) were purchased from Lonza. Human umbilical vein endothelial cells (HUVECs) are primary cells obtained from a pool of donors purchased from Clonetics (Lonza). Murine ear fibroblasts (MearFs) were obtained from C57BL/6J mice maintained in the INRCA “Specific Pathogen Free” (SPF) animal facility. MCF7 breast cancer cells were purchased from ATCC. For dose–response curves, IMR90 and WI38 were induced to senescence through replicative passages; MSCs, HUVECs, and MearFs senescence was induced with Doxorubicin; MCF7 senescence was induced with 4‐Hydroxytamoxifen (Lee et al. [2014]). The EC50 was calculated using GraphPad Prism 10 software. All treatment specifications are reported in the extended section.
(§2) Cell culture and treatment. IMR90 cells (Homo sapiens, fetal lung, fibroblast) and WI38 cells (Homo sapiens, fetal lung, fibroblast) were purchased from ECACC-Merck (Merck, Darmstadt, Germany) and cultured in MEM medium (Euroclone, Milano, Italy) supplemented with 1% L-Glutamine (Euroclone, Milano, Italy), 1% Penicillin-Streptomycin (Euroclone, Milano, Italy), and 10% Fetal Bovine Serum (FBS, Euroclone, Milano, Italy), at 37°C, 5% CO2. IMR90 cells with a population doubling (PD) from PD15 to PD23 were used; cells were considered incrementally senescent from passage PD19 to passage PD23. WI38 cells were used from PD26 to PD53. Cells were considered incrementally senescent from passage PD49 to passage PD53. For the compounds in vitro screening, IMR90 cells with passages from PD15 to PD23 were tested at increasing concentrations of 0.5 μM, 1 μM, 10 μM, and 25 μM over 24 and 48 h to evaluate the compounds' efficacy and cytotoxicity compared to the Vehicle (DMSO ≤ 0.1%). Cells were counted manually, in triplicate, using Trypan blue reagent (Euroclone) and disposable Bürker chambers. […] K5 dose-response proliferation curves were performed with compound K5 (Molport, SIA, Riga, Latvia) in concentrations 0.1, 0.5, 1, 5, 10, 50, 100, and 200 μM for 48 h. Cells were counted using a Trypan blue reagent and EVAplus cell counter. The EC50s were calculated by analyzing the data using GraphPad Prism 10 software.
MCF7 cell line (ATCC; HTB-22, Homo sapiens, breast cancer) was purchased from ATCC; cells were grown in MEM medium (Corning, New York, USA, #15-010-CVR) supplemented with 10% FBS (Gibco, Invitrogen, Carlsbad, CA, USA, #10270106), 1% glutamine (Corning #25005-CI), 1% penicillin and streptomycin (Corning #30002-CI). Cells were incubated at 37 °C with 5% CO2. Senescent status induction: MCF7 were plated 24 h before the treatment with 4-Hydroxytamoxifen (TAM) 10 μM to induce the senescence described by (Lee et al. 2014). Control cultures were treated with equal volumes of 75% ethanol as the vehicle. The treatment with TAM lasts 96 h, after which the cells have been washed and treated with the senolytic drugs K5 10 µM for another 96 h. The treatment with the senolytic compounds has been renewed at 48 h. Cell mortality and vitality curves after treatment with K5 (10 μM, orange) or Vehicle (DMSO, grey) were monitored using the Incucyte live-cell Analysis system (Sartorius, Goettingen, Germany). The estimated Senolytic index (SI) was calculated as the ratio between the EC50 in proliferating cells and the EC50 in senescent cells, extrapolated using GraphPad Prism 10 software.

IMR90 cells [4] = assay: as above; type: cell-based; conditions: proliferating IMR90 (PD14), 48 h
IMR90 cells [5] = assay: In vitro screening of the 14 in silico-selected compounds, surviving cell count, proliferating vs senescent IMR90; type: cell-based, Homo sapiens; conditions: 48 h; for effect on non-senescent IMR90 cells: PD15-PD17, 1 μM; for senolytic activity on senescent IMR90 cells: PD19-PD21, 1 μM
Description: as §1, §2

MCF7 cells = assay: Immunofluorescence of Cytochrome C / mitochondria colocalization in senescent MCF7; type: cell-based, Homo sapiens; conditions: MCF7, TAM 10 µM 96 h, then 72 h K5 10 µM or Dasatinib 1 µM
Method: (§3) Treated/untreated senescent IMR90 and MCF7 cells were fixed, permeabilized, and stained following suppliers' recommendations. Images were acquired using an Olympus IX83 research inverted microscope (IF) and a phase microscopy Nikon ECLIPSE Ei R (IHC) at 40× MAG.
(§4) Immunofluorescence staining. Treated/untreated IMR90 and MCF7 cells were cultured in LabTek II chamber slides (Nunc, Biosigma). At the final time point, cells were stained with 500 nM MitoTracker Orange (Thermo Fisher Scientific) for 30 min at 37°C and then fixed in 4% PFA (Merck) for 10 min, RT, and permeabilized with 0.1% Triton solution (Merck) for 30 min at RT. Samples were blocked in 5% BSA for 90 min, incubated overnight at 4°C with primary antibody against Cytochrome C (1:50, RbMAb, Abcam), and 1h at RT with secondary antibody Alexa Fluor 488 goat anti-Rb (1:200, Thermo Fisher Scientific). Nuclei were stained with DAPI (Cell Signaling) for 10 min at RT, and ProLong Glass Antifade Mountant (Thermo Fisher Scientific) was used to seal coverslips. Images were acquired using an Olympus IX83 research inverted microscope at 40X magnifications.

IMR90 cells [6] = assay: Immunofluorescence of Cytochrome C / mitochondria colocalization in senescent IMR90; type: cell-based, Homo sapiens; conditions: senescent IMR90 (PD21), 48 h, K5 25 μM, Dasatinib 1 μM; Vehicle OR = 0.913
Method: as §3, §4

Cn1c(=O)c2c(ncn2C)n(C)c1=O [Caffeine, reference compound]
interaction / stabilization of HSP90α in CETSA (HSP90α [1]): does not interact with the protein
IC50 (HSP90α [2]): > 300000 nM

CO[C@H]1/C=C\C=C(/C)C(=O)NC2=CC(=O)C(NCCN(C)C)=C(C[C@@H](C)C[C@H](OC)[C@H](O)[C@@H](C)/C=C(\C)[C@@H]1OC(N)=O)C2=O [Compound 17-DMAG]
Senolytic evidence (no, partly/yes) (IMR90 cells [3]; IMR90, Replicative/passages): Yes
EC50 (IMR90 cells [3]; IMR90, Replicative/passages, read-out: EC50 senescent cells): 85 nM
EC50 (IMR90 cells [3]; IMR90, read-out: EC50 proliferating cells): 780 nM
EC50 (IMR90 cells [4]): 785 nM
effect on non-senescent IMR90 cells (IMR90 cells [5]): cytotoxic effects also visible in non

Cc1[nH]nc(-c2ccc(O)cc2O)c1Oc1ccc(F)cc1 [Compound B2, 4-[4-(4-fluorophenoxy)-5-methyl-1H-pyrazol-3-yl]benzene-1,3-diol]
senolytic activity on senescent IMR90 cells (IMR90 cells [5]): evident senolytic activity

O=S(=O)(NCc1ccc(-c2ccc(F)cc2F)o1)c1ccccc1 [Compound C2, N-{[5-(2,4-difluorophenyl)furan-2-yl]methyl}benzenesulfonamide]
senolytic activity on senescent IMR90 cells (IMR90 cells [5]): evident senolytic activity

Cc1nc(Nc2ncc(C(=O)Nc3c(C)cccc3Cl)s2)cc(N2CCN(CCO)CC2)n1 [Dasatinib, reference compound]
Cytochrome C / mitochondria colocalization, Overlap R (OR) (MCF7 cells; TAM + Vehicle OR = 0.978): 0.956
Cytochrome C / mitochondria colocalization, Pearson's Rr (PRr) (MCF7 cells; TAM + Vehicle PRr = 0.961): 0.928
Cytochrome C / mitochondria colocalization, Overlap R (OR) (IMR90 cells [6]): 0.639

CC(C)c1cc(-c2n[nH]c(=O)n2-c2ccc3c(ccn3C)c2)c(O)cc1O [Ganetespib]
EC50 (IMR90 cells [3]; Homo sapiens, IMR-90, IMR90, Replicative/passages, read-out: EC50 senescent cells): 87 nM
EC50 (IMR90 cells [3]; Homo sapiens, IMR-90, IMR90, read-out: EC50 proliferating cells): 1000 nM
Senolytic evidence (no, partly/yes) (IMR90 cells [3]; IMR90, Replicative/passages): Yes
EC50 (IMR90 cells [4]; Homo sapiens, IMR-90): 1040 nM
effect on non-senescent IMR90 cells (IMR90 cells [5]): cytotoxic effects also visible in non
